From US20040087597A1, “Preventives and remedies for complications of diabetes” (priority 2000, published 2004)

Tests used:
[1] = system: aortic smooth muscle cells of rats; assay: Secretion of osteopontin protein from aortic smooth muscle cells of rats, with or without mevalonic acid (western blotting); assay type: cell-based, rat; conditions: FIG. 2(b)
Procedure: (§1) The effect of mevalonic acid on the suppression with pitavastatin calcium for the expression of osteopontin mRNA and the secretion of osteopontin protein in aortic smooth muscle cells of rats were measured according to the method described below.
(§2) Aortic smooth muscle cells of rats (5 to 10 passage culture) were seeded in a 6-well culture plate and the confluent cultures were attained by culturing in low glucose (1000 mg/L) DMEM with 10% FBS under 5% CO2 atmosphere at 37° C. Thereafter, the medium was replaced with the medium with pitavastatin calcium (8 μM) and/or mevalonic acid (100 μM), and the cells were cultured for another 48 hours. The medium was again replaced with 1.5 mL of FBS-free medium per well, and the cells were cultured further for 48 hours.
At the same time, the conditioned medium was collected, osteopontin protein was absorbed on DE52, subjected to electrophoresis exactly as in Example 2, and the amount of the secreted osteopontin protein was analyzed by western blotting method.
(§3) The above measurements were carried out in the three cases when pitavastatin calcium and mevalonic acid were not added, when only pitavastatin calcium was added, and when both pitavastatin calcium and mevalonic acid were added.

[2] = system: aortic smooth muscle cells of rats; assay: Expression of osteopontin mRNA in aortic smooth muscle cells of rats, with or without mevalonic acid (northern blotting); assay type: cell-based, rat; conditions: FIG. 2(a)
Procedure: as §1, §2
After the cultivation, the cells adhered to the culture plate were homogenized together with ISOGEN, RNA were extracted exactly as in Example 1, and the amount of osteopontin mRNA was analyzed by northern blotting method.
as §3

osteopontin mRNA = assay: Expression of osteopontin mRNA in the kidney and blood vessels of STZ-induced diabetic rats and normal rats (Northern blotting); assay type: in vivo, rat; conditions: for Kidney OPNmRNA/18S / Aorta OPNmRNA/18S / Aorta % Inhibition / Kidney % Inhibition: oral 3 mg/kg once a day, 7 days; for Kidney OPNmRNA/18S / Aorta OPNmRNA/18S: mean ± standard deviation, 3 mg/kg
Procedure: The effects of pitavastatin calcium on the expression of osteopontin mRNA in the kidney and blood vessels of STZ-induced diabetic rats were investigated according to the method described below.
Namely, 35 mg per kg of body weight of STZ dissolved in the concentration of 50 mg/mL of physiological saline was injected into the tail vein of male Wistar rats (body weight: about 300 g), and the animals were orally administered 1 mL/kg of body weight of 0.5% carboxymethylcellulose solution containing the test drug (pitavastatin calcium) in the concentration of 3mg/mL with a gastric sonde. Thereafter the oral administration was performed once a day by same volume and at fixed time during the experiment. The same volume of only 0.5% carboxymethylcellulose was given by the forced oral administration for the control group. The venous blood was withdrawn from the tail vein on the second day of the experiment and the presence of 200 mg/dL or above of the blood sugar level was confirmed.
24 hours after 7 days administration, the blood was withdrawn under the ether anesthesia, and kidneys and thoracic aorta were isolated. The predetermined amount of the tissue piece in ISOGEN (Wako Pure Chemicals K.K.) was homogenized in a polytron homogenizer and the total RNA was extracted. The total RNA thus obtained was precipitated by using isopropanol. The precipitate was washed with 70% ice cold ethanol and stored at −80° C. in 70% ethanol.
Osteopontin mRNA in the total RNA obtained was detected by the conventional Northern blotting method. That is to say that the total RNA precipitated with 70% ethanol was subjected to centrifugation at 15000 rpm, the precipitate was dried at room temperature after decanting the supernatant and dissolved in a small amount of TE buffer (10 mM Tris-HCl buffer-1 mM EDTA solution). 10 μL out of the solution thus obtained was diluted with 990 μL of TE buffer solution, and the amount of RNA was calculated by measuring the absorbance at 260 nm ultraviolet light of the solution. 40% solution of deionized glyoxal (3.5 μL), 0.1 M of NaHPO4 buffer solution (2.4 μL) and dimethylsulfoxide (11.8 μL) were added to the predetermined amount (10 or 20 μg) of the total RNA (final volume: 6 μL), heated at 50° C. for 1 hour and the total RNA was denatured. 6.3 μL of 10 mM sodium phosphate buffer solution (pH: 6.8) containing 50% glycerol and 0.4% bromophenol blue was added to the solution after the solution was cooled to the room temperature, and then RNA was subjected to electrophoresis using 1.5% agarose gel. RNA was blotted from agarose to nylon membrane in a conventional fashion by using 20×saline-sodium citrate (SSC). The blotted nylon membrane was washed with 2×SSC, and RNA was fixed on the nylon membrane by heating it to 80° C. in vacuo. DNA fragment encoding osteopontin was digested from pCRIIrOP vector with Eco R1 endonuclease and purified with Probe Quant™G-50 Micro Columns (Amersham Pharmacia Biotech Co. Ltd.). DNA fragment encoding Osteopontin thus obtained was hybridized for overnight together with the nylon membrane at 65° C. with Rediprime™ II (Amersham Pharmacia Biotech Co. Ltd.) radioactive probe labeled with ^32P radioisotope. Radioisotope level of the probe bound to the nylon membrane was detected on the X-ray film and the density of the bands were analyzed according to NIH Image. […] was used as the RNA internal standard and the amount of the expression was represented with the comparative intensities of the density of the bands. Osteopontin mRNA was similarly measured in the normal rat experiment.
In Table 1, OPN mRNA/18S represents the ratio of the density of osteopontin mRNA to the density of […] based on the NIH Image Analysis and % inhibition represents that to the respective control groups. The values of OPNmRNA/18S are mean ± standard deviation.

[3] = system: aortic smooth muscle cells of rats; assay: Secretion of osteopontin protein into conditioned medium from aortic smooth muscle cells of rats (Western blotting); assay type: cell-based, rat; conditions: normal glucose; pitavastatin calcium 0.03 and 0.3 μM, atorvastatin 0.3 and 3 μM; 48 hours; FIG. 1
Procedure: The effect of pitavastatin calcium and atorvastatin on the secretion of osteopontin protein into the conditioned culture medium from aortic smooth muscle cells of rats cultured under the normal glucose concentration were measured according to the method described below.
At first, aortic smooth muscle cells of rats (5 to 10 passage culture) were seeded in a 6-well culture plate and the confluent cultures were attained by culturing in low glucose (1000 mg/L) Dulbecco's modified Eagle's medium (DMEM) with 10% fetal bovine serum (FBS: BioWhittaker Co. Ltd.) under 5% CO2 atmosphere at 37° C. […]
After centrifugation, sedimented DE52 gels were washed several times with the same buffer, and 60 μL of 0.2M Tris hydrochloride buffer solution (pH 6.8) containing 5% of 2-mercaptoethanol, 4% of SDS, […], 20% of glycerol and 0.01% of bromophenol blue was added, and heat-treated for 5 minutes at 95° C. […] Chemiluminescences were detected on X-ray film using ECL™ (Amersham Pharmacia Biotech Co. Ltd.). The density of the bands were analyzed according to NIH Image. […]
The density of osteopontin protein measured with NIH Image Analysis for various concentration of pitavastatin calcium are shown in FIG. 1(a), and the density of osteopontin protein measured with NIH Image Analysis for various concentration of atorvastatin are shown in FIG. 1(b).

[4] = pitavastatin calcium 8 μM alone, 48 hours
[5] = pitavastatin calcium 8 μM with addition of mevalonic acid 100 μM
[6] = STZ-induced diabetic rats with drug administration, versus diabetic control
[7] = healthy rats with drug administration, versus healthy control
[8] = rats with drug administration, listed as Pitavastatin calcium

Row | Compound | Secretion of osteopontin protein [1, 4] | Suppressive effect on the secretion of osteopontin protein [1, 5] | Expression of osteopontin mRNA (ratio to 18S) [2, 4] | Suppressive effect on the expression of osteopontin mRNA [2, 5] | Kidney OPNmRNA/18S (osteopontin mRNA; STZ-induced diabetic rats with drug administration, p = 0.016 vs control) | Kidney OPNmRNA/18S (osteopontin mRNA; STZ-induced diabetic rats with drug administration, p = 0.016 vs control, listed as Pitavastatin calcium) | Aorta OPNmRNA/18S (osteopontin mRNA; STZ-induced diabetic rats with drug administration, p = 0.036 vs control) | Aorta OPNmRNA/18S (osteopontin mRNA; STZ-induced diabetic rats with drug administration, p = 0.036 vs control, listed as Pitavastatin calcium) | Aorta % Inhibition (osteopontin mRNA; [6]) [%] | Kidney % Inhibition (osteopontin mRNA; [6]) [%] | Influence on the expression of osteopontin in the kidney and the aorta (osteopontin mRNA; healthy rats) | Aorta % Inhibition (osteopontin mRNA; [7]) [%] | Kidney % Inhibition (osteopontin mRNA; [7]) [%] | Aorta OPNmRNA/18S (osteopontin mRNA; rats with drug administration) | Kidney OPNmRNA/18S (osteopontin mRNA; rats with drug administration) | Aorta OPNmRNA/18S (osteopontin mRNA; [8]) | Kidney OPNmRNA/18S (osteopontin mRNA; [8]) | Amount of the secretion of osteopontin protein into the conditioned medium [3]
1 | (+)-bis{(3R, 5S, 6E)-7-[2-cyclopropyl4-(4-fluorophenyl)-3-quinolyl]-3,5-dihydroxy-6-heptenoic acid}-calcium [pitavastatin calcium] | suppresses | disappear | suppresses | disappear | 1.933 ± 0.874 | 1.933 | 1.300 | 1.300 | 59.4 | 40.2 | did not influence | −1.4 | −24.1 | 2.433 ± 0.929 | 1.667 ± 0.321 | 2.433 | 1.667 | inhibited with the statistical significance
2 | CC(C)c1c(C(=O)Nc2ccccc2)c(-c2ccccc2)c(-c2ccc(F)cc2)n1CC[C@@H](O)C[C@@H](O)CC(=O)O [atorvastatin] | – | – | – | – | – | – | – | – | – | – | – | – | – | – | – | – | – | inhibited with the statistical significance
